Results on 25 molecules are retold here after PubChem BioAssay AID256 (DTP/NCI, 2004).

Toxic doses and inconclusive results are not listed.

This assay concerns CD2F1 mice, L1210 leukemia ip, survival T/C. Kind of assay: NCI In Vivo Anticancer Drug Screen. Data for tumor model L1210 Leukemia (intraperitoneal) in CD2F1 (CDF1) mice. As to conditions: endpoint: mean survival time, higher = longer survival. Summed up:
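Transplantable tumor in mice; compound-treated vs vehicle-treated groups. Read-out = treated/control ratio of the measured endpoint.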

Where [1] appears, read: dose: 100.0 mg/kg/injection, schedule: Q01DX009 (ip), vehicle: saline with Tween-80.
Where [2] appears, read: dose: 200.0 mg/kg/injection, schedule: Q01DX009 (ip), vehicle: saline with Tween-80.
Where [3] appears, read: dose: 400.0 mg/kg/injection, schedule: Q01DX009 (ip), vehicle: saline with Tween-80.
[4] abbreviates: dose: 25.0 mg/kg/injection, schedule: Q04DX002 (ip), vehicle: saline with Tween-80.
Where [5] appears, read: dose: 50.0 mg/kg/injection, schedule: Q04DX002 (ip), vehicle: saline with Tween-80.
Where [6] appears, read: dose: 100.0 mg/kg/injection, schedule: Q01DX001 (ip), vehicle: saline with Tween-80.
Setting [7] is: dose: 100.0 mg/kg/injection, schedule: Q04DX003 (ip), vehicle: saline with Tween-80.
The mark [8] stands for this setting: dose: 200.0 mg/kg/injection, schedule: Q04DX003 (ip), vehicle: saline with Tween-80.
Setting [9] is: dose: 400.0 mg/kg/injection, schedule: Q04DX003 (ip), vehicle: saline with Tween-80.

For the molecule `CCCc1nc2[nH]cnc(=S)c2[nH]1`, the T/C (dose: 12.5 mg/kg/injection, schedule: Q01DX005 (ip), vehicle: other) is 110 % of control; the T/C (dose: 25.0 mg/kg/injection, schedule: Q01DX005 (ip), vehicle: other) is 108 % of control; the T/C (dose: 50.0 mg/kg/injection, schedule: Q01DX005 (ip), vehicle: other) is 96 % of control.
On to `COc1cccc(C(=O)c2ccccc2NC(C)=O)c1`, for which the T/C was 101 % of control under setting [1], 103 % of control under setting [2] and 98 % of control under setting [3].
On to `COC1CCC(/C=C(\C#N)C2CCC([N+](=O)[O-])CC2)CC1Br` (configuration not stated), for which the T/C runs as follows: under setting [4], 105 % of control; under setting [5], 96 % of control.
Turning to `Cc1cccc(NC(=O)COc2ccc(Cl)cc2C)c1`, the T/C was 110 % of control (dose: 100.0 mg/kg/injection, schedule: Q04DX002 (ip), vehicle: saline with Tween-80); 94 % of control (dose: 200.0 mg/kg/injection, schedule: Q04DX002 (ip), vehicle: saline with Tween-80); 98 % of control (dose: 400.0 mg/kg/injection, schedule: Q04DX002 (ip), vehicle: saline with Tween-80).
As for `Cc1cccc(/C=C2\Cc3ccccc3C2=O)c1`, the T/C under setting [6] was 103 % of control; the T/C (dose: 200.0 mg/kg/injection, schedule: Q01DX001 (ip), vehicle: saline with Tween-80) is 95 % of control; the T/C (dose: 400.0 mg/kg/injection, schedule: Q01DX001 (ip), vehicle: saline with Tween-80) is 103 % of control.
As for `[Br][Pt].[NH-]CC[N-]CC[NH-]`, the T/C reads like this: (dose: 12.5 mg/kg/injection, schedule: Q01DX009 (ip), vehicle: water) 98 % of control; (dose: 25.0 mg/kg/injection, schedule: Q01DX009 (ip), vehicle: water) 93 % of control.
For the molecule `CSC(=S)NNC(=O)c1cccc(S(=O)(=O)F)c1`, the T/C reads like this: (dose: 75.0 mg/kg/injection, schedule: Q01DX001 (ip), vehicle: saline) 97 % of control; (dose: 150.0 mg/kg/injection, schedule: Q01DX001 (ip), vehicle: saline) 96 % of control; (dose: 300.0 mg/kg/injection, schedule: Q01DX001 (ip), vehicle: saline) 96 % of control.
Regarding `COc1cc(-c2ccc(-[n+]3nc(Cc4ccc5c(c4)OCO5)nn3-c3ccccc3)c(OC)c2)ccc1-[n+]1nc(Cc2ccc3c(c2)OCO3)nn1-c1ccccc1`, the T/C under setting [7] is 98 % of control and the T/C under setting [8] was 97 % of control.
On to `OCC1(CO)CCCC(CO)(CO)C1O`, for which the T/C is 94 % of control (dose: 100.0 mg/kg/injection, schedule: Q04DX002 (ip), vehicle: saline); 94 % of control (dose: 200.0 mg/kg/injection, schedule: Q04DX002 (ip), vehicle: saline); 94 % of control (dose: 400.0 mg/kg/injection, schedule: Q04DX002 (ip), vehicle: saline).
In the case of `NNC(=O)c1nc(N)n[nH]1`, the T/C is 101 % of control under setting [7], 103 % of control under setting [8] and 104 % of control under setting [9].
In the case of `O=C1c2ccccc2C(=O)N1Cc1ccccc1`, the T/C under setting [1] was 105 % of control, the T/C under setting [2] was 100 % of control and the T/C under setting [3] was 103 % of control.
With `COC(=O)c1ccccc1N=NNc1cccc(SC)c1`, the T/C is, setting by setting: (dose: 50.0 mg/kg/injection, schedule: Q01DX009 (ip), vehicle: saline with Tween-80) 95 % of control; under setting [1], 103 % of control; under setting [2], 97 % of control.
For the molecule `CCC(=O)C(C)N(C)c1ccccc1` (configuration not stated), the T/C is 100 % of control (dose: 100.0 mg/kg/injection, schedule: Q04DX003 (ip), vehicle: saline); 100 % of control (dose: 200.0 mg/kg/injection, schedule: Q04DX003 (ip), vehicle: saline); 94 % of control (dose: 400.0 mg/kg/injection, schedule: Q04DX003 (ip), vehicle: saline).
As to `CC1=CC(C)(N=[N+]=[N-])CC(C)(C)C1` (configuration not stated), the T/C by setting is: (dose: 37.5 mg/kg/injection, schedule: Q01DX009 (ip), vehicle: saline) 97 % of control; (dose: 75.0 mg/kg/injection, schedule: Q01DX009 (ip), vehicle: saline) 97 % of control.
On to `CCCCCCNC(=O)Nc1ccc(Cl)c(Cl)c1`, for which the T/C was 92 % of control under setting [8] and 93 % of control under setting [9].
On to `COC1CC(C)OC(OC2C(C)/C=C/C(=O)OC(C)C(COC3OC(C)C(O)C(OC)C3OC)C3OC3/C=C/C(=O)C(C)(O)CC2C)C1O` (configuration not stated), for which the T/C was 100 % of control (dose: 125.0 mg/kg/injection, schedule: Q01DX001 (ip), vehicle: saline sonified); 101 % of control (dose: 250.0 mg/kg/injection, schedule: Q01DX001 (ip), vehicle: saline sonified); 95 % of control (dose: 500.0 mg/kg/injection, schedule: Q01DX001 (ip), vehicle: saline sonified).
In the case of `Brc1ccc(-c2ccc(Br)cc2)cc1`, the T/C runs as follows: (dose: 100.0 mg/kg/injection, schedule: Q04DX003 (ip), vehicle: Klucel (hydroxypropylcellulose) (HPC)) 105 % of control; (dose: 200.0 mg/kg/injection, schedule: Q04DX003 (ip), vehicle: Klucel (hydroxypropylcellulose) (HPC)) 95 % of control; (dose: 400.0 mg/kg/injection, schedule: Q04DX003 (ip), vehicle: Klucel (hydroxypropylcellulose) (HPC)) 95 % of control.
On to `c1ccc2c(c1)Nc1ccccc1S2`, for which the T/C under setting [1] is 92 % of control; the T/C under setting [7] is 98 % of control; the T/C under setting [2] is 92 % of control; the T/C under setting [8] was 108 % of control; the T/C under setting [3] was 89 % of control; the T/C under setting [9] was 101 % of control.
Turning to `O=P(O)(O)OCC(O)CO.[NH-]C1CCCCC1[NH-].[Pt+2]` (configuration not stated), the T/C is, setting by setting: (dose: 1.17 mg/kg/injection, schedule: Q04DX003 (ip), vehicle: other) 115 % of control; (dose: 9.38 mg/kg/injection, schedule: Q04DX003 (ip), vehicle: other) 231 % of control; (dose: 18.75 mg/kg/injection, schedule: Q04DX003 (ip), vehicle: other) 186 % of control; (dose: 37.5 mg/kg/injection, schedule: Q04DX003 (ip), vehicle: other) 104 % of control.
On to `CC1CN=C(c2ccc(NC(=O)c3ccc(C(=O)Nc4ccc(C5=NCC(C)N5)cc4)cc3)cc2)N1` (configuration not stated), for which the T/C was 212 % of control (dose: 12.5 mg/kg/injection, schedule: Q01DX009 (ip), vehicle: Klucel (hydroxypropylcellulose) (HPC)); 269 % of control (dose: 25.0 mg/kg/injection, schedule: Q01DX009 (ip), vehicle: Klucel (hydroxypropylcellulose) (HPC)); 290 % of control (dose: 50.0 mg/kg/injection, schedule: Q01DX009 (ip), vehicle: Klucel (hydroxypropylcellulose) (HPC)); 305 % of control (dose: 100.0 mg/kg/injection, schedule: Q01DX009 (ip), vehicle: Klucel (hydroxypropylcellulose) (HPC)); 333 % of control (dose: 200.0 mg/kg/injection, schedule: Q01DX009 (ip), vehicle: Klucel (hydroxypropylcellulose) (HPC)); 288 % of control (dose: 400.0 mg/kg/injection, schedule: Q01DX009 (ip), vehicle: Klucel (hydroxypropylcellulose) (HPC)).
Consider `O=C(O)C1CCCCC1c1c2ccc(=O)cc-2oc2cc(O)ccc12` (configuration not stated), for which the T/C under setting [7] was 104 % of control, the T/C under setting [8] was 92 % of control and the T/C under setting [9] was 92 % of control.
`CCCCCCCCCC(=O)CCCCCCC`: the T/C was 105 % of control (dose: 100.0 mg/kg/injection, schedule: Q04DX003 (ip), vehicle: other); 92 % of control (dose: 200.0 mg/kg/injection, schedule: Q04DX003 (ip), vehicle: other); 107 % of control (dose: 400.0 mg/kg/injection, schedule: Q04DX003 (ip), vehicle: other).
Take `ClCCOC(c1ccc(Cl)cc1)c1ccc(Cl)cc1`: the T/C reads like this: (dose: 100.0 mg/kg/injection, schedule: Q04DX003 (ip), vehicle: saline + alcohol) 96 % of control; (dose: 200.0 mg/kg/injection, schedule: Q04DX003 (ip), vehicle: saline + alcohol) 94 % of control; (dose: 400.0 mg/kg/injection, schedule: Q04DX003 (ip), vehicle: saline + alcohol) 100 % of control.
Turning to `OC(COc1ccc(Cl)cc1)COc1ccc(Cl)cc1`, the T/C runs as follows: (dose: 25.0 mg/kg/injection, schedule: Q01DX001 (ip), vehicle: saline with Tween-80) 94 % of control; (dose: 50.0 mg/kg/injection, schedule: Q01DX001 (ip), vehicle: saline with Tween-80) 94 % of control; under setting [6], 105 % of control.
With `O=C(/C=C/c1ccccc1)Oc1cc(O)cc(O)c1`, the T/C is, setting by setting: (dose: 12.5 mg/kg/injection, schedule: Q04DX002 (ip), vehicle: saline with Tween-80) 102 % of control; under setting [4], 105 % of control; under setting [5], 105 % of control.
